# Where a SMILES comes first, the peptide text is derived from it. The star is where a group is joined. Cbz = O=C(OCc1ccccc1)*; OtBu = CC(C)(C)O*
# Experiments:
# [1] = molecular target: T1, 20S proteasome (Mus musculus, UniProt O55234); experiment: Proteasome inhibition assay, compounds added directly to 20S proteasome preparation (LLVY-AMC cleavage); assay type: biochemical; settings: 20S proteasome preparations from packed whole blood of mice, FIG. 2A
# T1 construct: 20S proteasome preparations from packed whole blood of mice; from tissue; host or cells: packed whole blood of mice (EDTA lysate supernatant)
# Description: If packed whole blood is used as a source for proteasomes, 1 ml blood collected in heparinized microtainer tubes is diluted 1:1 (v/v) with saline and centrifuged at 500×g (Sorvall RT 6000D, rotor H-1000B at 1500 rpm) for 5 min at room temperature. The supernatant is removed and the PWB pellet resuspended in 1 ml PBS and microcentrifuged at 6600×g (Eppendorf 5415C at 7000 rpm) for 10 min at room temperature. The supernatant is removed and the PWB pellet is then frozen at −70° C. prior to proteasome analysis.
# To prepare the proteasomes, WBC or RBC or PWB 1:1 (v/v) are lysed using 5 mM EDTA, pH 8.0 for 30 min and centrifuged at 15,000×g (Eppendorf 5415C at 14,000 rpm) for 10 min at room temperature. The supernatant containing proteasomes is placed on ice and the protein concentration is determined. […]
# (§1) For the assay, 50 μl sample—i.e., 20 proteasome; or standard; or ˜50 μg/μl WBC; or ˜500 μg/μl RBC or ˜1000 μg/μl PWB samples some containing test compounds is added to 50 μl substrate buffer (20 mM HEPES, 0.5 mM EDTA, 0.05% SDS, and 120 μM LLVY-AMC; pH 8.0) in a 96-well black fluorescence plate. The reaction is measured with a fluorescence spectrophotometer (excitation max.: 380 nm; emission max.: 440 nm, and velocity of reaction determined. As shown, the substrate is Leu-Leu-Val-Tyr-AMC. AMC is amido-4-methylcoumarin. […]
# [2] = system: C57 male black mice; experiment: Stimulation of hair growth on shaved dorsal trunk, topical application; assay type: in vivo; settings: 5 days, 1% OSA (100 μl) or 10% isoginkgetin (50 μl), after 17 days and 26 days, FIGS. 3A and 3B
# Description: C57 male black mice, 8 weeks old, were acclimated for 7 days in individual cages and fed standard diets and water ad libitum. The mice were anesthetized prior to manipulation. The dorsal trunk of each mouse was shaved and then treated topically starting the following day with a 1.0% solution of OSA (100 μl) which was applied for each of 5 days. A similar protocol was followed using 50 μl solution of isoginkgetin at percentages of 1, 5 and 10% wt/wt. The progression of hair growth is monitored visually and photographed.
# FIGS. 3A and 3B show the results for 1% OSA or 10% isoginkgetin after 17 days and 26 days respectively.
# [3] = molecular target: T2, proteasomes of red blood cells (Mus musculus, UniProt O55234); experiment: Proteasome inhibition assay, red blood cells treated with compounds, then proteasomes isolated and protease activity assessed; assay type: cell-based; settings: red blood cells treated first, then proteasomes isolated; OSA compared with isoginkgetin; FIG. 2B
# T2 construct: endogenous in cells; host or cells: red blood cells
# Description: If RBC are used, the RBC pellet obtained in the process of obtaining WBC described above is recovered and washed with 3 ml PBS, then centrifuged at 500×g (Sorvall RT 6000D, rotor H-1000B at 1500 rpm) for 5 min at room temperature. The supernatant is removed and the RBC pellet resuspended in 1 ml PBS and microcentrifuged at 6600×g (Eppendorf 5415C at 7000 rpm) for 10 min at room temperature. The supernatant is again removed and the RBC pellet is then frozen at −70° C. prior to proteasome analysis.
# To prepare the proteasomes, WBC or RBC or PWB 1:1 (v/v) are lysed using 5 mM EDTA, pH 8.0 for 30 min and centrifuged at 15,000×g (Eppendorf 5415C at 14,000 rpm) for 10 min at room temperature. The supernatant containing proteasomes is placed on ice and the protein concentration is determined.
# as §1
smiles,measurement,setting,value
CC[C@H](C)[C@H](NC(=O)OCc1ccccc1)C(=O)N[C@@H](CCC(=O)OC(C)(C)C)C(=O)N[C@@H](C)C(=O)N[C@H](C=O)CC(C)C [OSA] (Cbz-IE(OtBu)AL-aldehyde),inhibition of the Vmax of the proteolytic cleavage of the LLVY-AMC substrate,[1],similarly inhibit the Vmax
same,growth of hair in the dorsal area as compared to control,[2],stimulate the growth of hair
same,proteasome inhibition when red blood cells are treated with the compounds,[3],more effective
